Columns and labels:
Pseudomonas aeruginosa [1] = assay: Antibacterial activity against Pseudomonas aeruginosa ATCC 27853 at 1000 ug/mL after 24 hrs by well plate method; format: functional; conditions: ATCC 27853, 24 h, read-out: DIZ
Staphylococcus aureus [2] = assay: Antibacterial activity against Staphylococcus aureus ATCC 25923 at 500 ug/mL after 24 hrs by well plate method; format: functional; conditions: ATCC 25923, 24 h, read-out: DIZ
Staphylococcus aureus [3] = assay: Antibacterial activity against Staphylococcus aureus ATCC 25923 at 1000 ug/mL after 24 hrs by well plate method; format: functional; conditions: ATCC 25923, 24 h, read-out: DIZ
Escherichia coli [4] = assay: Antibacterial activity against Escherichia coli ATCC 25922 at 500 ug/mL after 24 hrs by well plate method; format: functional; conditions: ATCC 25922, 24 h, read-out: DIZ
Escherichia coli [5] = assay: Antibacterial activity against Escherichia coli ATCC 25922 at 1000 ug/mL after 24 hrs by well plate method; format: functional; conditions: ATCC 25922, 24 h, read-out: DIZ
[6] = Antioxidant activity assessed as ABTS+ radical scavenging activity after 30 mins by UV-vis spectrophotometric analysis; format: functional
Liver microsomes = assay: Antioxidant activity in Wistar rat liver microsomes assessed as inhibition of lipid peroxidation after 60 mins by UV-vis spectrophotometric analysis; format: functional, Microsome
[7] = system: Radical scavenging activity; assay: Antioxidant activity assessed as DPPH radical scavenging activity after 20 mins by UV-vis spectrophotometric analysis; format: functional
Candida albicans [8] = assay: Antifungal activity against Candida albicans MTCC 3017 at 500 ug/mL after 72 hrs by well plate method; format: functional; conditions: MTCC 3017, 72 h, read-out: DIZ
Candida albicans [9] = assay: Antifungal activity against Candida albicans MTCC 3017 at 1000 ug/mL after 72 hrs by well plate method; format: functional; conditions: MTCC 3017, 72 h, read-out: DIZ
[10] = Antifungal activity against Chrysosporium keratinophilum MTCC 2827 at 500 ug/mL after 72 hrs by well plate method; format: functional
[11] = Antifungal activity against Chrysosporium keratinophilum MTCC 2827 at 1000 ug/mL after 72 hrs by well plate method; format: functional
Aspergillus flavus [12] = assay: Antifungal activity against Aspergillus flavus MTCC 3306 at 500 ug/mL after 72 hrs by well plate method; format: functional; conditions: MTCC 3306, 72 h, read-out: DIZ
Aspergillus flavus [13] = assay: Antifungal activity against Aspergillus flavus MTCC 3306 at 1000 ug/mL after 72 hrs by well plate method; format: functional; conditions: MTCC 3306, 72 h, read-out: DIZ
Pseudomonas aeruginosa [14] = assay: Antibacterial activity against Pseudomonas aeruginosa ATCC 27853 at 500 ug/mL after 24 hrs by well plate method; format: functional; conditions: ATCC 27853, 24 h, read-out: DIZ

| SMILES | zone of inhibition at 1000 µg/mL (Pseudomonas aeruginosa [1]) | zone of inhibition at 500 µg/mL (Staphylococcus aureus [2]) | zone of inhibition at 1000 µg/mL (Staphylococcus aureus [3]) | zone of inhibition at 500 µg/mL (Escherichia coli [4]) | zone of inhibition at 1000 µg/mL (Escherichia coli [5]) | IC50 [6] | IC50 (Liver microsomes) | IC50 [7] | zone of inhibition at 500 µg/mL (Candida albicans [8]) | zone of inhibition at 1000 µg/mL (Candida albicans [9]) | inhibition zone (IZ) [10] | inhibition zone (IZ) [11] | zone of inhibition at 500 µg/mL (Aspergillus flavus [12]) | zone of inhibition at 1000 µg/mL (Aspergillus flavus [13]) | zone of inhibition at 500 µg/mL (Pseudomonas aeruginosa [14]) |
| --- | --- | --- | --- | --- | --- | --- | --- | --- | --- | --- | --- | --- | --- | --- | --- |
| COc1cc(C2CC(=NOC(=O)c3cc(O)cc(O)c3)CC(c3ccc(O)c(OC)c3)N2C)ccc1O (configuration not stated) | 5 mm | 5 mm | 5 mm | 5 mm | 4 mm | 12.3 µM | 17.2 µM | 10.8 µM | 3 mm | 3 mm | 2 mm | 1 mm | 1 mm | 2 mm | 4 mm |
| COc1ccc(C(=O)ON=C2CC(c3ccc(O)c(OC)c3)N(C)C(c3ccc(O)c(OC)c3)C2)cc1 (configuration not stated) | 4 mm | 2 mm | 4 mm | 2 mm | 3 mm | 33 µM | 40 µM | 28 µM | 5 mm | 7 mm | 4 mm | 4 mm | 5 mm | 6 mm | 3 mm |
| COc1cc(C2CC(=NOC(=O)c3ccc([N+](=O)[O-])cc3)CC(c3ccc(O)c(OC)c3)N2C)ccc1O (configuration not stated) | 8 mm | 5 mm | 8 mm | 4 mm | 8 mm | 79 µM | 82 µM | 76 µM | 7 mm | 6 mm | 4 mm | 5 mm | 3 mm | 4 mm | 5 mm |
| COc1cc(C2CC(=NOC(=O)c3ccc(Br)cc3)CC(c3ccc(O)c(OC)c3)N2C)ccc1O (configuration not stated) | 9 mm | 7 mm | 9 mm | 7 mm | 11 mm | 108 µM | 112 µM | 103 µM | 8 mm | 9 mm | 5 mm | 7 mm | 5 mm | 6 mm | 7 mm |
| COc1cc(C2CC(=NOC(=O)c3cc(OC)c(OC)c(OC)c3)CC(c3ccc(O)c(OC)c3)N2C)ccc1O (configuration not stated) | 5 mm | 4 mm | 6 mm | 4 mm | 5 mm | 53 µM | 61 µM | 40 µM | 3 mm | 3 mm | 3 mm | 6 mm | 4 mm | 3 mm | 3 mm |
| COc1cc(C2CC(=NOC(=O)c3cccc(O)c3)CC(c3ccc(O)c(OC)c3)N2C)ccc1O (configuration not stated) | 5 mm | 5 mm | 7 mm | 6 mm | 7 mm | 16.5 µM | 25.3 µM | 15.6 µM | 1 mm | 3 mm | 1 mm | 2 mm | 1 mm | 2 mm | 3 mm |
| COc1cc(C2CC(=NOC(=O)c3ccc(O)cc3)CC(c3ccc(O)c(OC)c3)N2C)ccc1O (configuration not stated) | 3 mm | 4 mm | 6 mm | 4 mm | 5 mm | 15.1 µM | 22.5 µM | 14.2 µM | 2 mm | 2 mm | 2 mm | 3 mm | 12 mm | 1 mm | 2 mm |
| COc1cc(C2CC(=NO)CC(c3ccc(O)c(OC)c3)N2C)ccc1O (configuration not stated) | 1 mm | 0 mm | 1 mm | 0 mm | 1 mm | 158 µM | 167 µM | 144 µM | 0 mm | 1 mm | 1 mm | 1 mm | 0 mm | 1 mm | 0 mm |
| COc1cc(C2CC(=NOC(=O)c3ccccc3O)CC(c3ccc(O)c(OC)c3)N2C)ccc1O (configuration not stated) | 4 mm | 5 mm | 5 mm | 4 mm | 6 mm | 15.9 µM | 24.1 µM | 14.8 µM | 2 mm | 6 mm | 4 mm | 6 mm | 3 mm | 4 mm | 3 mm |
| CN[C@@H]1[C@H](O[C@H]2[C@H](O[C@H]3[C@H](O)[C@@H](O)[C@H](N=C(N)N)[C@@H](O)[C@@H]3N=C(N)N)O[C@@H](C)[C@]2(O)C=O)O[C@@H](CO)[C@H](O)[C@H]1O [STREPTOMYCIN] | 16 mm | 12 mm | 15 mm | 12 mm | 18 mm |  |  |  |  |  |  |  |  |  | 13 mm |
| OC(Cn1cncn1)(Cn1cncn1)c1ccc(F)cc1F [FLUCONAZOLE] |  |  |  |  |  |  |  |  | 20 mm | 22 mm | 16 mm | 17 mm | 12 mm | 14 mm |  |
| COc1cc(C2CC(=NOC(=O)c3cc(O)c(O)c(O)c3)CC(c3ccc(O)c(OC)c3)N2C)ccc1O (configuration not stated) | 4 mm | 4 mm | 6 mm | 5 mm | 7 mm | 11.8 µM | 16.1 µM | 10 µM | 6 mm | 8 mm | 3 mm | 4 mm | 2 mm | 4 mm | 3 mm |
| COc1cc(C2CC(=NOC(=O)c3ccc(F)cc3)CC(c3ccc(O)c(OC)c3)N2C)ccc1O (configuration not stated) | 16 mm | 13 mm | 15 mm | 13 mm | 18 mm | 141 µM | 140 µM | 133 µM | 18 mm | 20 mm | 14 mm | 12 mm | 13 mm | 17 mm | 13 mm |
| COc1cc(C2CC(=NOC(=O)c3ccc(Cl)cc3)CC(c3ccc(O)c(OC)c3)N2C)ccc1O (configuration not stated) | 15 mm | 9 mm | 13 mm | 12 mm | 17 mm | 112 µM | 121 µM | 110 µM | 16 mm | 19 mm | 12 mm | 10 mm | 12 mm | 15 mm | 12 mm |
| COc1cc(C2CC(=NOC(=O)c3ccccc3)CC(c3ccc(O)c(OC)c3)N2C)ccc1O (configuration not stated) | 2 mm | 3 mm | 4 mm | 2 mm | 3 mm | 156 µM | 165 µM | 141 µM | 2 mm | 3 mm | 2 mm | 3 mm | 1 mm | 2 mm | 1 mm |
| COc1ccc(C(=O)ON=C2CC(c3ccc(O)c(OC)c3)N(C)C(c3ccc(O)c(OC)c3)C2)c(OC)c1 (configuration not stated) | 6 mm | 3 mm | 5 mm | 4 mm | 6 mm | 41 µM | 52 µM | 32 µM | 4 mm | 6 mm | 4 mm | 5 mm | 4 mm | 5 mm | 6 mm |
